Assay results taken from US9765070B2, “Substituted oxopyridine derivatives” (Bayer Pharma Aktiengesellschaft, priority 2013, dated 2017).
pIC50: −log10 of the molar value.

Each compound was assayed against human plasma kallikrein (Homo sapiens (Human), UniProt P03952) (assay: Determination of the plasma kallikrein activity (fluorogenic substrate H-Pro-Phe-Arg-AMC)). Conditions: plasma kallikrein from Kordia 0.6 nM, 15 min preincubation, 30 min at 22° C., fluorescence.
Type: biochemical
Procedure: a.5) Determination of the Plasma Kallikrein Activity
To determine the plasma kallikrein inhibition of the substances according to the invention, a biochemical test system is used which utilizes the reaction of a peptidic plasma kallikrein substrate to determine the enzymatic activity of human plasma kallikrein. Here, plasma kallikrein cleaves from the peptic plasma kallikrein substrate the C-terminal aminomethylcoumarin (AMC), the fluorescence of which is measured. The determinations are carried out in microtitre plates.
In each case 1 μl of the diluted substance solutions is placed into the wells of white microtitre plates from Greiner (384 wells). 20 μl of assay buffer (50 mM Tris/HCl pH 7.4; 100 mM sodium chloride solution; 5 mM of calcium chloride solution; 0.1% of bovine serum albumin) and 20 μl of plasma kallikrein from Kordia (0.6 nM in assay buffer) are then added successively. After 15 min of incubation, the enzyme reaction is started by addition of 20 μl of the substrate H-Pro-Phe-Arg-AMC dissolved in assay buffer (10 μM in assay buffer) from Bachem, the mixture is incubated at room temperature (22° C.) for 30 min and fluorescence is then measured (excitation: 360 nm, emission: 460 nm). The measured emissions of the test batches with test substance are compared to those of control batches without test substance (only dimethyl sulphoxide instead of test substance in dimethyl sulphoxide), and IC50 values are calculated from the concentration/activity relationships.

human plasma kallikrein, sequence (P03952 391-638): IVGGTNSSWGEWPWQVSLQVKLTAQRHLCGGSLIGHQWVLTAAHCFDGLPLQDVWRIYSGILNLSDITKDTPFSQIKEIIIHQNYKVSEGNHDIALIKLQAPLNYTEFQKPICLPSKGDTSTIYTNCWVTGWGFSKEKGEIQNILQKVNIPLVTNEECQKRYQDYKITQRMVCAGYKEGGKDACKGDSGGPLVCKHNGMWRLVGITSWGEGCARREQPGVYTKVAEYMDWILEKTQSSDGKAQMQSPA
human plasma kallikrein, sequence (P03952 20-390 partner): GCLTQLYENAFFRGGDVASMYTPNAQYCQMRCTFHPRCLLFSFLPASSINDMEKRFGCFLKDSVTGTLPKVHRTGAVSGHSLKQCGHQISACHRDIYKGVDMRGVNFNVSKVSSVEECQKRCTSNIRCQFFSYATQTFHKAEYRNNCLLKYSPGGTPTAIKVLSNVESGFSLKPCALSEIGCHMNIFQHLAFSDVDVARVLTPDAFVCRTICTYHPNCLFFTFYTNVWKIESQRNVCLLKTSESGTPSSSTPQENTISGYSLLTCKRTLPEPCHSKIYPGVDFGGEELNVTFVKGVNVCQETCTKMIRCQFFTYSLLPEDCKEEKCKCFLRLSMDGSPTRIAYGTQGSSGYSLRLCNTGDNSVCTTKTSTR

Question: With `CCC(C(=O)Nc1ccc2nc(-c3ccc(F)cc3)cn2c1)n1cc(OC)c(-c2cc(Cl)ccc2C#N)cc1=O` (racemic) [Example 18, 2-[4-(5-Chloro-2-cyanophenyl)-5-methoxy-2-oxopyridin-1(2H)-yl]-N-[2-(4-fluorophenyl)-imidazo[1,2-a]pyridin-6-yl]butanamide (racemate)] as the compound, how does the pIC50 read?
Answer: The pIC50 was 6.89.

Question: `COCCC(C(=O)Nc1ccc2nc(-c3ccc(F)cc3)cn2c1)n1cc(OC)c(-c2cc(Cl)ccc2C#N)cc1=O` (racemic) [Example 19, 2-[4-(5-Chloro-2-cyanophenyl)-5-methoxy-2-oxopyridin-1(2H)-yl]-N-[2-(4-fluorophenyl)-imidazo[1,2-a]pyridin-6-yl]-4-methoxybutanamide (racemate)] was tested. Which pIC50 did it give?
Answer: The pIC50 was 7.60.

Question: With `CCC(C(=O)Nc1ccc2nncn2c1)n1cc(OC)c(-c2cc(Cl)ccc2C#N)cc1=O` (racemic) [Example 20, 2-[4-(5-Chloro-2-cyanophenyl)-5-methoxy-2-oxopyridin-1(2H)-yl]-N-([1,2,4]triazolo[4,3-a]pyridin-6-yl)butanamide (racemate)] as the compound, how does the pIC50 read?
Answer: The pIC50 was 7.64.

Question: With `COCCC(C(=O)Nc1ccc2nnc(C)n2c1)n1cc(OC)c(-c2cc(Cl)ccc2C#N)cc1=O` (racemic) [Example 22, 2-[4-(5-Chloro-2-cyanophenyl)-5-methoxy-2-oxopyridin-1(2H)-yl]-4-methoxy-N-(3-methyl[1,2,4]triazolo[4,3-a]pyridin-6-yl)butanamide (racemate)] as the compound, how does the pIC50 read?
Answer: Its pIC50 is 8.08.

Question: `CCc1nnc2ccc(NC(=O)C(CCOC)n3cc(OC)c(-c4cc(Cl)ccc4C#N)cc3=O)cn12` (racemic) [Example 23, 2-[4-(5-Chloro-2-cyanophenyl)-5-methoxy-2-oxopyridin-1(2H)-yl]-4-methoxy-N-(3-ethyl[1,2,4]triazolo[4,3-a]pyridin-6-yl)butanamide (racemate)] was tested. Which pIC50 did it give?
Answer: The pIC50 was 7.89.

Question: With `CCCCc1nnc2ccc(NC(=O)C(CCOC)n3cc(OC)c(-c4cc(Cl)ccc4C#N)cc3=O)cn12` (racemic) [Example 24, N-(3-Butyl[1,2,4]triazolo[4,3-a]pyridin-6-yl)-2-[4-(5-chloro-2-cyanophenyl)-5-methoxy-2-oxopyridin-1(2H)-yl]-4-methoxybutanamide (racemate)] as the compound, how does the pIC50 read?
Answer: Its pIC50 is 7.80.

Question: How did the pIC50 turn out when `COCCC(C(=O)Nc1ccc2nnc(CN(C)C)n2c1)n1cc(OC)c(-c2cc(Cl)ccc2C#N)cc1=O` (racemic) [Example 25, 2-[4-(5-Chloro-2-cyanophenyl)-5-methoxy-2-oxopyridin-1(2H)-yl]-N-{3-[(dimethylamino)-methyl][1,2,4]triazolo[4,3-a]pyridin-6-yl}-4-methoxybutanamide (racemate)] was run?
Answer: Its pIC50 is 7.64.

Question: How did the pIC50 turn out when `COCCC(C(=O)Nc1ccc2cncn2c1)n1cc(Cl)c(-c2cc(Cl)ccc2C#N)cc1=O` (racemic) [Example 27, 2-[5-Chloro-4-(5-chloro-2-cyanophenyl)-2-oxopyridin-1(2H)-yl]-N-(imidazo[1,5-a]pyridin-6-yl)-4-methoxybutanamide (racemate)] was run?
Answer: The pIC50 was 7.30.

Question: How did the pIC50 turn out when `COc1cn(C(Cc2ccccn2)C(=O)Nc2ccc3nccn3c2)c(=O)cc1-c1cc(Cl)ccc1C#N` (racemic) [Example 28, 2-[4-(5-Chloro-2-cyanophenyl)-5-methoxy-2-oxopyridin-1(2H)-yl]-N-(imidazo[1,2-a]pyridin-6-yl)-3-(pyridin-2-yl)propanamide (racemate)] was run?
Answer: The pIC50 was 8.06.

Question: How did the pIC50 turn out when `COc1cn(C(Cc2cnco2)C(=O)Nc2ccc3nccn3c2)c(=O)cc1-c1cc(Cl)ccc1C#N` (racemic) [Example 29, 2-[4-(5-Chloro-2-cyanophenyl)-5-methoxy-2-oxopyridin-1(2H)-yl]-N-(imidazo[1,2-a]pyridin-6-yl)-3-(1,3-oxazol-5-yl)propanamide (racemate)] was run?
Answer: Its pIC50 is 7.96.

Question: With `CCC(C(=O)Nc1ccn2nccc2c1)n1cc(OC)c(-c2cc(Cl)ccc2C#N)cc1=O` (racemic) [Example 34, 2-[4-(5-Chloro-2-cyanophenyl)-5-methoxy-2-oxopyridin-1(2H)-yl]-N-(pyrazolo[1,5-a]pyridin-5-yl)butanamide (racemate)] as the compound, how does the pIC50 read?
Answer: Its pIC50 is 7.77.
